Entries after “also recorded” stand apart in the source; their conditions may differ. Counter-ions that a name gives are not always drawn.
Experiments:
[1] = Thermal stability of pure crystalline solid; assay type: physicochemical; settings: 100 °C for 12 h
CHO-K1 cells = assay: MTT cytotoxicity assay toward CHO cell line; settings: 72 h exposure, whole concentration range, up to 1 mM
[2] = Kinetics of acid-catalysed rearrangement of 2 to 4 in aqueous HCl (HPLC); settings: for half-life at 50 µg/mL: 6 M aqueous HCl, Half life of rearrangement, initial concentration 50 µg/mL, n = 3
[3] = Rearrangement in simulated gastric fluid or equimolar aqueous HCl (HPLC); assay type: physicochemical; settings: 0.08 M aq. HCl, 1 g/L NaCl and 1.6 g/L pepsin, 6 h at 37 °C
human mAChR M3 = target: T1, human mAChR M3 (Homo sapiens, UniProt P20309); assay: Competitive [3H]NMS radioligand binding assay on CHO cell membranes, mAChR M3; settings: CHO cell membranes with human receptor, 1.5 h at 20 °C, this work
T1 construct: host or cells: CHO-K1 (stably transfected), membrane preparation
Method: (§1) Filter bound decay rate is normalized to 1 for binding in absence of competitor and to 0 for nonspecific binding.
(§2) Membrane preparations of mAChR M1, M2, M3, M4 or M5 receptors were produced from the respective cell line as follows. The medium of a confluent T175 cell culture flask was poured off and the cell layer was washed with ice-cold PBS. Cells were scraped off and suspended in 2 mL 10 mM Tris/HCl, 1 mM EDTA buffer (pH 7.4) and 200 µL protease inhibitor cocktail. A cell homogenate obtained from passing the cell suspension through a G29 needle was centrifuged (10 min, 1,000 g, 4 °C).
(§3) A competitive radioligand binding assay using [^3H]NMS and variable concentrations of test compounds was performed in assay buffer (50 mM Tris/HCl, 10 mM MgCl2, 1 mM EDTA). Polypropylene tubes were filled with 5 µL aqueous solution of the test compounds, 50 µL radioligand solution in assay buffer and 445 µL membrane suspension in assay buffer (diluted approx. 1:100), shaken and incubated for 1.5 h at 20 °C. Nonspecific binding of the radioligand was determined by using 5 µL of a 1 µM scopolamine hydrobromide solution. The concentration of the radioligand solution was chosen as 2 nM, 3 nM, 8 nM, 2 nM and 10 nM for M1-M5, respectively. […] Specific binding was calculated as total binding minus nonspecific binding. To delineate the IC50 value, specific binding was plotted against the logarithm of the test compound concentration and fitted by a variable slope logistic regression.
(§4) Table S3: HPLC parameters of the methods for the analysis of pirenzepine, telenzepine and their rearrangement products. LOD = limit of
(§5) detection, LOL = limit of linearityi
(§6) Stably transfected CHO-K1 cells containing human muscarinic receptors M1-M5 were purchased from Missouri
(§7) University of Science and Technology cDNA Resource Center (Cell Catalog#: CEM1000000, CEM2000000,
(§8) Limited) supplemented with 10% FBS (Gibco, Life Tec hnologies Limited) and 250 µg/mL Geneticin® (G418, Thermo
(§9) Fisher) at 37 °C and 5% CO2 in a cell incubator. Cells were passaged using Gibco Trypsin -EDTA (0.05%). A solution of […]

human mAChR M1 = target: T2, human mAChR M1 (Homo sapiens, UniProt P11229); assay: Competitive [3H]NMS radioligand binding assay on CHO cell membranes, mAChR M1; settings: for Ki: [3H]NMS 0.2 nM, CHO cell membranes with human receptor, 1.5 h at 20 °C, this work
T2 construct: host or cells: CHO-K1 (stably transfected), membrane preparation
T2 sequence (P11229 1-460): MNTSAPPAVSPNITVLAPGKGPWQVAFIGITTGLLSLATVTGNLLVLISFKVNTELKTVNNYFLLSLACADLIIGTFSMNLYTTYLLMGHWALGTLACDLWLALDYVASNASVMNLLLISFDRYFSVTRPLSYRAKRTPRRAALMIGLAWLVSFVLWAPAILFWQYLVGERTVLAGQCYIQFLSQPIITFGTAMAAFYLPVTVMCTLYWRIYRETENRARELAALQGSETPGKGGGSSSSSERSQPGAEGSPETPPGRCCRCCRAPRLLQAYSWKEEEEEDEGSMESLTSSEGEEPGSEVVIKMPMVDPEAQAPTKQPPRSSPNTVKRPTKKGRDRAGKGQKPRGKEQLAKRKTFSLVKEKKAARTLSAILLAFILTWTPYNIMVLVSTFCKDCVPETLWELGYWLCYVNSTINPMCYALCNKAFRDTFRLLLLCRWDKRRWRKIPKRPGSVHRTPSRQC
Method: as §1, §2
as §3, with “solution.” for “solution. The concentration of the radioligand solution was chosen as 2 nM, 3 nM, 8 nM, 2 nM and 10 nM for M1-M5, respectively.”
as §4, §5, §6, §7, §8
Fisher) at 37 °C and 5% CO2 in a cell incubator. Cells were passaged using Gibco Trypsin -EDTA (0.05%). A solution of
P2714-1BTL, Sigma-Aldrich in 10 mL water was used as protease inhibitor cocktail.

human mAChR M2 = target: T3, human mAChR M2 (Homo sapiens, UniProt P08172); assay: Competitive [3H]NMS radioligand binding assay on CHO cell membranes, mAChR M2; settings: CHO cell membranes with human receptor, 1.5 h at 20 °C, this work
T3 construct: host or cells: CHO-K1 (stably transfected), membrane preparation
T3 sequence (P08172 1-466): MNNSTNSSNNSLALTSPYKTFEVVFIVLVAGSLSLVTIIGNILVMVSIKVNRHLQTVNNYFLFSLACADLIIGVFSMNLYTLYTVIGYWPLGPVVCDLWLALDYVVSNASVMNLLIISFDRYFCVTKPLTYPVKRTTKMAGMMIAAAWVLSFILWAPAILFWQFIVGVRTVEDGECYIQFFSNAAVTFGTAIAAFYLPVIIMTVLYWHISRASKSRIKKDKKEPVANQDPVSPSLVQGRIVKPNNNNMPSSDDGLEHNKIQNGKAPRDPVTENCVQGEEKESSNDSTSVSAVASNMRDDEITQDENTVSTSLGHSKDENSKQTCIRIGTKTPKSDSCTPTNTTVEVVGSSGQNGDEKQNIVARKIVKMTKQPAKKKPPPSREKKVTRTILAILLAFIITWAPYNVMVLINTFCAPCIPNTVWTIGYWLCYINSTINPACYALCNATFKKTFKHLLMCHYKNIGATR
Method: as §1, §2, §3, §4, §5, §6, §7, §8, §9

human mAChR M4 = target: T4, human mAChR M4 (Homo sapiens, UniProt P08173); assay: Competitive [3H]NMS radioligand binding assay on CHO cell membranes, mAChR M4; settings: CHO cell membranes with human receptor, 1.5 h at 20 °C, this work
T4 construct: host or cells: CHO-K1 (stably transfected), membrane preparation
T4 sequence (P08173 1-479): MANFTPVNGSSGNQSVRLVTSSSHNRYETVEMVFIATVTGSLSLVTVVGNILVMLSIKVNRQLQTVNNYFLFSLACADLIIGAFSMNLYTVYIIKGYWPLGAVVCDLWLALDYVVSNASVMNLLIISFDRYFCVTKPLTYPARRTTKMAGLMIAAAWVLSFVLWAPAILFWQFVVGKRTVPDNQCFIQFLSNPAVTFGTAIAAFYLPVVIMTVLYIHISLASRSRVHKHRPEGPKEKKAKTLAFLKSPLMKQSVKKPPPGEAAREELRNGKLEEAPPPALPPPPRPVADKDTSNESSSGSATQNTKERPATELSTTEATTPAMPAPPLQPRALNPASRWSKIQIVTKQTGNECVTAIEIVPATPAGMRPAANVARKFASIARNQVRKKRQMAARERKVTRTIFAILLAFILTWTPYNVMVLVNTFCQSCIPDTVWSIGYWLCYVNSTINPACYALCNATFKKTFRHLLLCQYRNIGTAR
Method: as §1, §2, §3, §4, §5, §6, §7, §8, §9

human mAChR M5 = target: T5, human mAChR M5 (Homo sapiens, UniProt P08912); assay: Competitive [3H]NMS radioligand binding assay on CHO cell membranes, mAChR M5; settings: CHO cell membranes with human receptor, 1.5 h at 20 °C, this work
T5 construct: host or cells: CHO-K1 (stably transfected), membrane preparation
T5 sequence (P08912 1-532): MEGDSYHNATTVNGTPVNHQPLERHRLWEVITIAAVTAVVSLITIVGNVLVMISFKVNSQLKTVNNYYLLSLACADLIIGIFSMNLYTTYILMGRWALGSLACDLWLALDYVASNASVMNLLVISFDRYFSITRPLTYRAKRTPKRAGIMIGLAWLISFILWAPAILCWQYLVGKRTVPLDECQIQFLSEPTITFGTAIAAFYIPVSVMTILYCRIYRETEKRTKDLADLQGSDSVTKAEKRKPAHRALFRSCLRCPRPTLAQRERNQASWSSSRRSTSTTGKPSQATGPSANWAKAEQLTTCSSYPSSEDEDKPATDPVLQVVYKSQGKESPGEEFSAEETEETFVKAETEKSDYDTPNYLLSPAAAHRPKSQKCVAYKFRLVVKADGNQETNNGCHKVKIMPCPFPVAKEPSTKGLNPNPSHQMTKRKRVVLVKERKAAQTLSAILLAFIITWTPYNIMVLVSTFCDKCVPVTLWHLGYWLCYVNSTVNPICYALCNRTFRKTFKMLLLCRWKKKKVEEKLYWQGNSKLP
Method: as §1, §2, §3, §4, §5, §6, §7, §8, §9

mAChR M4 = settings: read-out: Ki mAChR M4; 90 min at 37 °C, NG108-15 cells; cited from earlier work
mAChR M3 = target: mAChR M3; design: method as in PMID 2066986; settings: 90 min at 37 °C, transfected A9L cells; cited from earlier work
mAChR M2 = settings: read-out: Ki mAChR M2; 90 min at 37 °C, membranes from rat heart tissue; cited from earlier work
mAChR M1 = settings: read-out: Ki mAChR M1; 90 min at 37 °C, transfected A9L cells; cited from earlier work

T1 sequence (P20309 whole entry): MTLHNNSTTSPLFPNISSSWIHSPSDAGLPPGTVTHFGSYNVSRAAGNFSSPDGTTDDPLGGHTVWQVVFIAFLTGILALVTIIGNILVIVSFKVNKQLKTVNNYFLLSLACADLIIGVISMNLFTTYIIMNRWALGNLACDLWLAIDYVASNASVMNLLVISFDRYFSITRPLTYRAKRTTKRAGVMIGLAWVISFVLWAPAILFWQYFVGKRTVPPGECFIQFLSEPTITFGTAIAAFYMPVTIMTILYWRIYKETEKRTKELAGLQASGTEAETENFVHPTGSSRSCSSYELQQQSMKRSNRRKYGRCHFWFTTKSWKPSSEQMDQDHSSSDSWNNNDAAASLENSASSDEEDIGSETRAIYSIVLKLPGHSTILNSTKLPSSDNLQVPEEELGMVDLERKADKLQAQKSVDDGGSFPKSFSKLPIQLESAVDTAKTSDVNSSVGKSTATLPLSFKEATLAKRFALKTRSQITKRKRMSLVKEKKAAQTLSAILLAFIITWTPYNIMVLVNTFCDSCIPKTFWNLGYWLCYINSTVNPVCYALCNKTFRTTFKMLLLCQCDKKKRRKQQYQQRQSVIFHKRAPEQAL

Row | Formation of 4 from 2 ([2]; 0.1 M aqueous HCl at 37 °C, 55 °C or 75 °C overnight) [%] | Activation energy of the rearrangement ([2]; 6 M HCl, from slope of Arrhenius plot) [kcal/mol] | half-life at 50 µg/mL ([2]; 6 M HCl, 37 °C) [h] | half-life at 50 µg/mL ([2]; 6 M HCl, 55 °C) [h] | half-life at 50 µg/mL ([2]; 6 M HCl, 75 °C) [h] | Conversion of 2 to 4 ([2]; strong excess of aqueous HCl (6 M), pseudo first order kinetic) | Ki (human mAChR M3) [µM] | Ki (human mAChR M1) [µM] | Ki (human mAChR M2) [µM] | Ki (human mAChR M4) [µM] | Ki (human mAChR M5) [µM] | Loss of affinity towards M1 on rearrangement (affinity constant of rearranged product vs parent) (human mAChR M1; rearranged product (4 or 5) versus parent drug) [fold] | SMILES | Formation of 4 on heating the solid [1] | Effect on cell viability (MTT assay) (CHO-K1 cells) | Isomerization of 2 to 4 in simulated gastric fluid [3] | Ki (mAChR M4) [µM] | Ki (mAChR M3) [µM] | Ki (mAChR M2) [µM] | Ki (mAChR M1) [µM]
1 | < 1 | 19.9 ± 0.454 | 13.8 ± 0.5 | 1.95 ± 0.267 | 0.417 ± 0.0333 | quantitative conversion | – | – | – | – | – | – | CN1CCN(CC(=O)N2c3ccccc3C(=O)Nc3cccnc32)CC1 [Compound 2, Pirenzepine dihydrochloride] | did not result in formation of 4 in detectable amounts | No cytotoxic effect | neither simulated gastric fluid (0.08 M aq. HCl, 1 g/L NaCl and 1.6 g/L pepsin) nor equimolar aqueous HCl solution caused detectable isomerization | – | – | – | –
2 | – | – | – | – | – | – | 7 ± 2 | 0.6 ± 0.02 | 47 ± 19 | 1.2 ± 0.2 | 0.36 ± 0.02 | – | CN1CCN(Cc2nc3cccnc3n2-c2ccccc2C(=O)O)CC1.Cl.Cl [Compound 4, 2-(2-((4-methylpiperazin-1-yl)methyl)-3H-imidazo[4,5-b]pyridin-3-yl)benzoic acid dihydrochloride] | – | No cytotoxic effect; also recorded: without measurable effect on cell viability | – | – | – | – | –
3 | – | – | – | – | – | – | 8 ± 3 | 1.4 ± 0.3 | 10.6 ± 1.5 | 2 ± 0.4 | 4.1 ± 0.2 | – | Cc1scc(C(=O)O)c1-n1c(CN2CCN(C)CC2)nc2ccccc21 [Compound 5, 5-methyl-4-(2-((4-methylpiperazin-1-yl)methyl)-1H-benzo[d]imidazol-1-yl)thiophene-3-carboxylic acid] | – | No cytotoxic effect; also recorded: without measurable effect on cell viability | – | – | – | – | –
4 | – | – | – | – | – | – | 0.012 ± 0.002 | 0.0018 ± 0.0008 | 0.026 ± 0.005 | 0.029 ± 0.016 | 0.016 ± 0.009 | 780 | Cc1scc2c1N(C(=O)CN1CCN(C)CC1)c1ccccc1NC2=O [telenzepine 2HCl, Telenzepine dihydrochloride] | – | No cytotoxic effect | – | 0.0174 | 0.0069 | 0.0503 | 0.0018
